# According to ChEMBL document CHEMBL3124790, “Antibacterial properties and mode of action of new triaryl butene citrate compounds” (Eur J Med Chem, 2014):
# Active and inactive are the calls of the source. The calls are words filed in the database; no cut-off is given here.
# Key:
# [1] = test system: Escherichia coli; assay: Antimicrobial activity against Escherichia coli MC4100 assessed as damage of inner or outer membranes at 5 times MIC after 5 mins by transmission electron microscopy analysis; type: functional, organism-based
# [2] = test system: Salmonella enterica subsp. enterica; assay: Antimicrobial activity against Salmonella enterica ATCC 14028 after 24 hrs by polystyrene micro-assay; type: functional; details: ATCC 14028, 24 h
# [3] = test system: Listeria ivanovii; assay: Antimicrobial activity against Listeria ivanovii HPB20 assessed as appearance of swollen and severely damaged morphology at 5 times MIC after 5 mins by transmission electron microscopy analysis; type: functional
# [4] = test system: Listeria ivanovii; assay: Antimicrobial activity against Listeria ivanovii HPB20 assessed as loss of integrity at 5 times MIC after 5 mins by transmission electron microscopy analysis; type: functional
# [5] = test system: Listeria monocytogenes; assay: Antimicrobial activity against Listeria monocytogenes LSD 532 after 24 hrs by polystyrene micro-assay; type: functional; details: LSD 532, 24 h
# [6] = Hemolytic activity in erythrocytes (unknown origin) after 1 hr; type: ADME, cell-based, Erythrocyte
# [7] = test system: Listeria ivanovii; assay: Antimicrobial activity against Listeria ivanovii HPB28 after 24 hrs by polystyrene micro-assay; type: functional; details: HPB28, 24 h
# [8] = test system: Pseudomonas aeruginosa; assay: Antimicrobial activity against Pseudomonas aeruginosa ATCC 15442 after 24 hrs by polystyrene micro-assay; type: functional; details: ATCC 15442, 24 h
# [9] = test system: Escherichia coli; assay: Antimicrobial activity against Escherichia coli MC4100 assessed as blurred boundaries and highly altered cell walls at 5 times MIC after 5 mins by transmission electron microscopy analysis; type: functional, organism-based
# [10] = test system: Staphylococcus aureus; assay: Antimicrobial activity against Staphylococcus aureus ATCC 6538 after 24 hrs by polystyrene micro-assay; type: functional; details: ATCC 6538, 24 h
# [11] = test system: Escherichia coli; assay: Antimicrobial activity against Escherichia coli MC4100 after 24 hrs by polystyrene micro-assay; type: functional; details: MC4100, 24 h
# [12] = test system: Listeria ivanovii; assay: Antimicrobial activity against Listeria ivanovii HPB20 assessed as condensed and localized intracellular content at 5 times MIC after 5 mins by transmission electron microscopy analysis; type: functional, cell-based
# [13] = test system: Enterococcus faecalis; assay: Antimicrobial activity against Enterococcus faecalis ATCC 27275 after 24 hrs by polystyrene micro-assay; type: functional; details: ATCC 27275, 24 h
# [14] = test system: Listeria monocytogenes; assay: Antimicrobial activity against Listeria monocytogenes LMA 1045 after 24 hrs by polystyrene micro-assay; type: functional; details: LMA 1045, 24 h
# [15] = test system: Escherichia coli; assay: Antimicrobial activity against Escherichia coli ATCC 11229 after 24 hrs by polystyrene micro-assay; type: functional; details: ATCC 11229, 24 h
# [16] = test system: Listeria monocytogenes; assay: Antimicrobial activity against Listeria monocytogenes assessed as induction of K+ efflux assessed per mg of cell dry weight at 2 to 5 times MIC after 30 mins by spectrometry analysis; type: functional
# [17] = test system: Listeria monocytogenes; assay: Antimicrobial activity against Listeria monocytogenes assessed as induction of K+ efflux assessed per mg of cell dry weight at MIC after 30 mins by spectrometry analysis; type: functional
# [18] = test system: Escherichia coli; assay: Antimicrobial activity against Escherichia coli MC4100 assessed as uniform electron density of cytoplasm and formation of mesosome-like structure at 5 times MIC after 5 mins by transmission electron microscopy analysis; type: functional, organism-based
# [19] = test system: Listeria monocytogenes; assay: Antimicrobial activity against Listeria monocytogenes assessed as induction of Na+ efflux assessed per mg of cell dry weight at 5 times MIC after 30 mins by spectrometry analysis; type: functional
# [20] = test system: Listeria monocytogenes; assay: Antimicrobial activity against Listeria monocytogenes assessed as induction of Na+ efflux assessed per mg of cell dry weight at 2 ug/ml after 30 mins by spectrometry analysis; type: functional
# [21] = test system: Listeria monocytogenes; assay: Antimicrobial activity against Listeria monocytogenes assessed as induction of K+ efflux assessed per mg of cell dry weight at 2 ug/ml after 30 mins by spectrometry analysis; type: functional
MIC [2],MIC [5],MIC [7],MIC [8],MIC [10],MIC [11],MIC [13],MIC [14],MIC [15],SMILES,Activity [1],Activity [3],Activity [4],HC50 at 1 h [6],Activity [9],other results
2500 µM,31 µM,25 µM,2500 µM,31 µM,100 µM,40 µM,62 µM,100 µM,CN(C)CCCOc1ccc(C(=C2CCc3ccccc32)c2ccc(OCCCN(C)C)cc2)cc1,Active,Active,Active,68.6 µM,Active,Activity [12]: Active
1250 µM,31 µM,25 µM,> 5000 µM,31 µM,50 µM,80 µM,62 µM,50 µM,CCC(=C(c1ccc(OCCCN(C)C)cc1)c1ccc(OCCCN(C)C)cc1)c1ccccc1.O=C(O)CC(O)(CC(=O)O)C(=O)O,Active,Active,Active,67.1 µM,Active,Activity [16]: 344 nmol; Activity [17]: 183.74 nmol; Activity [18]: Active; Activity [19]: 68%
–,–,–,–,–,–,–,–,–,C=C(NC(=O)[C@@H](NC(=O)[C@H](Cc1cnc[nH]1)NC(=O)[C@@H](NC(=O)[C@H](CO)NC(=O)[C@@H]1CSC(C)[C@@H]2NC(=O)[C@H](C)NC(=O)[C@@H](NC(=O)N(CCCCN)C(=O)[C@H](CCCCN)NC(=O)[C@@H](CCSC)NC(=O)[C@H](CC(N)=O)NC(=O)[C@@H]3CSC(C)[C@H](NC(=O)[C@H](CCCCN)NC(=O)[C@@H]4CSC(C)[C@H](NC(=O)[C@@H]5CSC[C@H](NC(=O)/C(=C/C)NC(=O)[C@@H](N)[C@@H](C)CC)C(=O)N[C@@H](CC(C)C)C(=O)NC(=C)C(=O)N[C@@H](CC(C)C)C(=O)N5)C(=O)N5CCC[C@H]5C(=O)NCC(=O)N4)C(=O)NCC(=O)N[C@@H](C)C(=O)N[C@@H](CC(C)C)C(=O)N[C@H](CCSC)C(=O)NCC(=O)N3)C(C)SC[C@H](NC2=O)C(=O)N[C@@H](Cc2cnc[nH]2)C(=O)N1)[C@@H](C)CC)C(C)C)C(=O)N[C@@H](CCCCN)C(=O)O (stereo not given in full),–,–,–,–,–,Activity [20]: 635.96 nmol; Activity [21]: 361.79 nmol
